Columns and labels:
[1] = test system: BCR-ABL mutant B-cell ALL; assay type: in vivo, mice; settings: 13 models, n=88 animals
[2] = test system: B-cell ALL leukemic cells in bone marrow; experiment: Bone marrow involvement at MRD in B-cell ALL PDX mice after mono- or combination therapy; assay type: in vivo; settings: treated for 28 days
Description: Mice are treated with ponatinib alone, ponatinib in combination with QNZ (a TNF-alpha inhibitor), ponatinib in combination with fostamatinib (a proximal pre-BCR pathway inhibitor), ponatinib in combination with ibrutinib (a proximal pre-BCR pathway inhibitor), ponatinib in combination with duvelisib (a distal pre-BCR inhibitor), or ponatinib in combination with losmapimod (a p38 MAPK inhibitor) for 28 days. Bone marrow aspirates are obtained, and leukemic cells are isolated using conventional Ficoll centrifugation and FACS sorting methods. The leukemic cells are counted as bone marrow involvement at MRD, and it is compared to that before treatment.

Row | Compound | Event free survival (remission/relapse, in words) [1] | bone marrow involvement at MRD [2]
1 | O=C(Nc1ccc(OC(F)(F)Cl)cc1)c1cnc(N2CC[C@@H](O)C2)c(-c2cc[nH]n2)c1 [ABL001, asciminib] | significant earlier relapse | 
2 | Cc1ccc(C(=O)Nc2ccc(CN3CCN(C)CC3)c(C(F)(F)F)c2)cc1C#Cc1cnc2cccnn12 [ponatinib] |  | 8%
